Legend:
[1] = tested on: MYC-CTNNB1 tumor organoids; experiment: Combination treatment matrices in MYC-CTNNB1 tumor organoids; assay type: cell-based, mouse; conditions: for effect of EZH2 degradation or inhibition (MS1943, GSK343) on activity: 3 days MS1943 or GSK343, then 3 days co-treatment; for Combination Index CI with p38i SB202190: titration of SB202190; for Combination Index CI with p38i SB202190 / Combination Index CI with KIT ligand SCF / Combination Index CI with BRAFi dabrafenib: 3 days; for Combination Index CI with KIT ligand SCF: titration of SCF; for Combination Index CI with BRAFi dabrafenib: titration of dabrafenib
From the text: FIG. 6A-6C are Volcano plots depicting phosphoproteomic (FIG. 6A), transcriptomic (FIG. 6B), and orepigenomic H3K27me3 (FIG. 6C) changes elicited by WNTinib inMYC-CTNNB1 tumor organoids (left) or MYC-Tp53 tumor organoids (right) as compared to DMSO. […] Values obtained from two biological replicates. […] Western blots measure endogenous proteins as indicated. […] Tubulin and histone H3 used as fractionation controls. […] Inset: western blot depicting depletion efficiency. Values obtained from three biological replicates [mean, SEM]. […] Tumor organoids were first treated with MS1943 or GSK343 for 3 days, followed by co-treatment with sorafenib or WNTinib for an additional 3 days. […] Combination index (CI) values were calculated for each column and averaged across each matrix.
Tumor organoids were treated for 3 days. […] Combination index (CI) values were calculated for each column and averaged across each matrix. […] FIGS. 7G-7H show combination treatment matrices for MYC-CTNNB1 tumor organoids treated with sorafenib (right) or WNTinib (left) and the BRAF inhibitor dabrafenib (FIG. 7G), or the p38 inhibitor SB202190 (FIG. 7H). Tumor organoids were treated for 3 days. […] Combination index (CI) values were calculated for each column and averaged across each matrix. […] Values obtained from three technical replicates [mean, SEM].
For assays in organoid lines, 96 well plates were first coated with a 50:50 solution of basal media:Matrigel (35 μL/well), which polymerized for 15 minutes at 37° C. Tumor organoids were taken out of Matrigel, broken, and washed. Tumor organoids were seeded at 1,000 cells per well and were treated the following day with serial dilutions (in the case of IC50 curves) or single doses (in the case of the initial screen) of drugs in technical triplicate. Final DMSO concentrations were kept below 0.5%. For adherent lines, cells were seeded at 5,000 cells per well in uncoated 96 well plates. […] Viability was measured three days post drug administration with either luminescence from CellTiter-Glo or absorbance at 560 and 590 nm from resazurin. Viability data was analyzed by normalizing individual drug-treated well values to DMSO-treated wells.

[2] = Single dose oral pharmacokinetics; assay type: in vivo, BALB/c mice; conditions: for half-life: 20 mg/kg oral gavage
Description: All animal experiments were carried out in accordance with ethical guidelines and approved by the Institutional Animal Care and Use Committee (IACUC), Biological Resource Center (BRC) A*STAR. BALB/c mice were purchased from InVivos, Singapore and fed with a standard laboratory diet and distilled water ad libitum. The animals were kept on a 12-hour light/dark cycle at 22±2° C. in individually ventilated caging systems with 50-65% humidity in the Biological Resource Centre, A*Star, Singapore. For single dose oral pharmacokinetic studies, female BALB/c mice (n=8, 6-8 weeks old) were used. The animals were fasted overnight and administered with a single oral dose (20 mg/kg) of WNTinib as prepared above. Blood samples were collected at pre-determined time points [0 (pre-dosing), 0.5, 1, 2, 4, 8, 12, and 24 hours] through the retro-orbital plexus (using micro hematocrit capillary tubes) into microvette CB300 K2E tubes. A sparse sampling technique (four mice per time point) was adopted during blood collection so that blood loss from each mouse was kept less than 10% of the total blood volume. Plasma was harvested by centrifuging the blood using a Sorvall Legend Micro 21R centrifuge (Thermo Scientific) at 3000 rpm for 15 minutes and stored at […] until further analysis. Mice were allowed to access feed 2 hours post-dosing and water ad libitum. Pharmacokinetic analysis of these compounds was performed using a Shimadzu UFLC prominence system (equipped with degasser (DGU-20A5), isopump (LC-20AD), autosampler (SIL-20AC HT) and column oven (CTO-20AC)) connected to a Sciex 4000 Q-Trap LC/MS/MS with heated electrospray ionization source. The primary stock solution (1.0 mg/mL) of WNTinib and Carbamazepine (Internal Standard, IS) were prepared in DMSO and used for subsequent dilutions. Required secondary and working stocks were prepared from the primary stocks using acetonitrile:water (75:25, v/v) as a diluent for the calibration curve (CC) and quality control (QC) studies. For the pharmacokinetic analysis, the mouse plasma was mixed with carbamazepine (50 ng/ml, final concentration) and extraction solvent (70% acetonitrile and 0.1% formic acid) and shaken for 10 minutes. After vigorous shaking, the samples were centrifuged at 14000 rpm for 20 minutes and the supernatant was collected. Chromatographic resolution of compound and the IS was achieved by injecting 1-2 μL of the processed sample on a Luna C18 100 Å column (50×2.0 mm, 5 μm; Phenomenex, USA) maintained at room temperature using a mobile phase consisting of 5 mM ammonium formate (buffered with 0.1% formic acid) and acetonitrile delivered at a flow-rate of 0.4 mL/minute. Quantitation was carried out using the multiple reaction monitoring of the transitions.

## CNC(=O)c1cc(Oc2ccc(NC(=O)Nc3ccc(C(F)(F)C(F)(F)F)cc3)c(F)c2)ccn1 [WNTinib, 4-(3-fluoro-4-(3-(4-(perfluoroethyl)phenyl)ureido)phenoxy)-N-methylpicolinamide]
[1]
  effect of EZH2 degradation or inhibition (MS1943, GSK343) on activity: antagonized the activity of WNTinib
  Combination Index CI with p38i SB202190: > 1
  Combination Index CI with KIT ligand SCF: > 1
  Combination Index CI with BRAFi dabrafenib: > 1
[2]; 20 mg/kg oral
  detectable quantities of drug in blood plasma, time post dosing: up to 72 hours
[2]; female, BALB/c, mouse, plasma
  half-life: 9.38 h
[2]; female, BALB/c, mouse, plasma, 20 mg/kg oral, read-out: concentration 24 hours after oral dosing
  concentration at 24 h: 7 µM

## CNC(=O)c1cc(Oc2ccc(NC(=O)Nc3ccc(Cl)c(C(F)(F)F)c3)cc2)ccn1 [sorafenib, reference compound]
[1]
  effect of EZH2 degradation or inhibition (MS1943, GSK343) on activity: did not alter the dose response to sorafenib
  Combination Index CI with p38i SB202190: this was not the case for sorafenib
  Combination Index CI with KIT ligand SCF: only WNTinib and not sorafenib activity was antagonized
  Combination Index CI with BRAFi dabrafenib: this was not the case for sorafenib
[2]; female, BALB/c, mouse, plasma
  half-life: 8 h
